Source: patent US12018026B1, “Pyrido[4,3-e][1,2,3]triazolo[1,5-a]pyrimidine as CK2 inhibitors” (KING FAISAL UNIVERSITY, priority 2024, dated 2024)

Assays:
[1] = system: PC3 (prostate); test: In vitro cytotoxic activity MTT assay, PC3; type: cell-based; conditions: Homo sapiens; cells exposed for 96 hours; read-out: Cytotoxicity activity IC50, PC3 (prostate)
Method: (§1) Compounds 1-16 were screened for their in vitro cytotoxic activity utilizing a 3-(4,5-dimethyl-thiazol-2-yl)-2,5-diphenyltetrazolium bromide (MTT) assay against selected cancer human cell lines consisting of PC3 (prostate), HCT116 (colon), A375 (melanoma), H1299 (lung), MIAPaCa-2 (pancreas), HL60 (leukemia), MCF7 (breast), MDA-MB-231 (breast) (T. Mosmann, J. Immunol. Meth., 1983, 65, 55-63). The cells were cultured at 37° C. in RMPI1640 medium supplemented with 10% fetal bovine serum, 50 IU/mL penicillin, and 50 μg/mL streptomycin in a 5% CO2 incubator. All cells were sub-cultured 3 times/week by trypsinisation. Viable cells were seeded and allowed to adhere for 12 hours before a test drug was added in 96-well plates at an initial density of 1.0×10^5 cells/mL. Tumor cell lines were separately exposed to various concentrations of the tested compounds followed by incubation at a temperature of 37° C. during 96 hours inside a medium of fresh RMPI 1640. Cells were subsequently incubated at 37° C. using MTT at 0.5 mg/mL during 4 hours. After removal of supernatant, formazan crystals were dissolved in isopropanol and the optical density was measured at 570 nm. CX-4945 was used as a positive control.

[2] = system: HCT116 (colon); test: In vitro cytotoxic activity MTT assay, HCT116; type: cell-based; conditions: Homo sapiens, HCT-116; cells exposed for 96 hours; read-out: Cytotoxicity activity IC50, HCT116 (colon)
Method: as §1

[3] = system: A375 (melanoma); test: In vitro cytotoxic activity MTT assay, A375; type: cell-based; conditions: Homo sapiens, A-375; cells exposed for 96 hours; read-out: Cytotoxicity activity IC50, A375 (melanoma)
Method: as §1

[4] = system: H1299 (lung); test: In vitro cytotoxic activity MTT assay, H1299; type: cell-based; conditions: Homo sapiens, NCI-H1299; cells exposed for 96 hours; read-out: Cytotoxicity activity IC50, H1299 (lung)
Method: as §1

[5] = system: MIAPaCa-2 (pancreas); test: In vitro cytotoxic activity MTT assay, MIAPaCa-2; type: cell-based; conditions: Homo sapiens, MIA PaCa-2; cells exposed for 96 hours; read-out: Cytotoxicity activity IC50, MIAPaCa-2 (pancreas)
Method: as §1

[6] = system: HL60 (leukemia); test: In vitro cytotoxic activity MTT assay, HL60; type: cell-based; conditions: Homo sapiens, HL-60; cells exposed for 96 hours; read-out: Cytotoxicity activity IC50, HL60 (leukemia)
Method: as §1

[7] = system: MCF7 (breast); test: In vitro cytotoxic activity MTT assay, MCF7; type: cell-based; conditions: Homo sapiens, cells exposed for 96 hours, read-out: Cytotoxicity activity IC50, MCF7 (breast)
Method: as §1

[8] = system: MDA-MB-231 (breast); test: In vitro cytotoxic activity MTT assay, MDA-MB-231; type: cell-based; conditions: Homo sapiens, cells exposed for 96 hours, read-out: Cytotoxicity activity IC50, MDA-MB-231 (breast)
Method: as §1

[9] = molecular target: T1, recombinant human CK2 (RRββ-holoenzyme) (Homo sapiens, UniProt P68400); test: CK2 Kinase Assay (33P-ATP, substrate peptide RRRDDDSDDD); type: biochemical; conditions: final ATP concentration 15 μM, 10 min at 30° C.; read-out: protein kinase CK2 IC50
T1 construct: purchased Millipore
T1 sequence (P68400 whole entry): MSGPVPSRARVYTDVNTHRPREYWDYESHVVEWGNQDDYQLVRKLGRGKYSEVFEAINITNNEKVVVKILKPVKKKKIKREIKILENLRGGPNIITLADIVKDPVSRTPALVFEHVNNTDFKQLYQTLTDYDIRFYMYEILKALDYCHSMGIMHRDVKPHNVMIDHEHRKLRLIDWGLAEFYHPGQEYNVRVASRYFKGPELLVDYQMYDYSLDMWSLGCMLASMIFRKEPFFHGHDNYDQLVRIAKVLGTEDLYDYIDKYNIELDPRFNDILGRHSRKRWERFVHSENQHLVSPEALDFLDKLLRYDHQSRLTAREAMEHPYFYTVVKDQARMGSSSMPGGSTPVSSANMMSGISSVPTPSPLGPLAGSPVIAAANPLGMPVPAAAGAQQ
T1 sequence (P67870 whole entry partner): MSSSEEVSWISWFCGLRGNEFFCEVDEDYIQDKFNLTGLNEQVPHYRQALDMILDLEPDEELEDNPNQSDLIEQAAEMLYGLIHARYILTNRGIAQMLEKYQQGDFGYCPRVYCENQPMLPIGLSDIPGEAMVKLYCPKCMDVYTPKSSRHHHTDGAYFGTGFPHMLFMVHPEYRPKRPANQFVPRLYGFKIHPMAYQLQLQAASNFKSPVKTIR
Method: CK2 Kinase Assay was conducted using the protocol as described in Pierre F. et al; J. Med. Chem. 2011, 54, 635-654. The tested compounds in aqueous solution were added at a volume of 10 μL to a reaction mixture comprising 10 μL of assay dilution buffer (ADB; 20 mM MOPS, pH 7.2, 25 mM β-glycerol phosphate, 5 mM EGTA, 1 mM sodium orthovanadate, and 1 mM dithiothreitol), 10 μL of substrate peptide (RRRDDDSDDD, dissolved in ADB at a concentration of 1 mM), 10 μL of recombinant human CK2 (RRββ-holoenzyme, 25 ng dissolved in ADB; Millipore). Reactions were initiated by the addition of 10 μL of ATP solution (90% 75 mMMgCl2, 75 μM ATP (final ATP concentration: 15 μM) dissolved in ADB; 10% [γ-33P] ATP (stock 1mCi/100 L; 3000 Ci/mmol (Perkin-Elmer) and maintained for 10 min at 30° C. The reactions were quenched with 100 μL of 0.75% phosphoric acid and then transferred to and filtered through a phosphor cellulose filter plate (Millipore). After washing each well five times with 0.75% phosphoric acid, the plate was dried under vacuum for 5 min and, following the addition of 15 μL of scintillation fluid to each well, the residual radioactivity was measured using a Wallac luminescence counter. The IC50 values were derived from eight concentrations of test inhibitors.

## O=C(O)c1nnn2c1nc(Nc1cccc(Cl)c1)c1ccncc12 [Compound 1, 5-((3-chlorophenyl)amino)pyrido[4,3-e][1,2,3]triazolo[1,5-a]pyrimidine-3-carboxylic acid]
[1]
  IC50: 1.4 µM
[2]
  IC50: 2.5 µM
[3]
  IC50: 5.7 µM
[4]
  IC50: 3.3 µM
[5]
  IC50: 1.1 µM
[6]
  IC50: 5.4 µM
[7]
  IC50: 4.7 µM
[8]
  IC50: 4.2 µM
[9]
  IC50: 0.024 µM
